Values joined by “and” are separate entries in the source; they are usually repeats but may differ in a detail not shown here. Equal values may be shown once. Where a name gives a salt, the structure may show the parent alone.
Tested on: Long Evans rats
Test: Behavioral satiety sequence (BSS)
Format: in vivo, Long Evans rat
Excerpt: The Behavioural Satiety Sequence (BSS) is a technique used to evaluate physiological satiety. It is based on the expression of a sequence of behaviors including eating, grooming, locomotor activity, followed by resting, which are typically observed in rodents post-ingestion (Halford et al, 1998, Pharmacology Biochemistry and Behaviour. 61(2): 159-168). The BSS is a widely used model for determining the effects of novel pharmaceuticals on food intake and measures of satiety in rodents (Oliveira et al, 2011, Revista de Nutrição. 24(4) 619-628), and to discriminate the cause of reduced food intake following pharmacological manipulation. For example, treatments that may reduce food intake by non-specific mechanisms, such as immobility, malaise, and taste adulteration, will disrupt this sequence (Halford et al, 1998, Pharmacology Biochemistry and Behaviour. 61(2): 159-168).
Specifically, 12 male Long-Evans rats were food-deprived for 22 h with a 2 h feeding period each day. Rats were trained to consume daily food during the 2 h period over 25 days. The testing phase was initiated once the rats consistently consumed 16-18 g of food per day with ≤10% variance in amount of feed consumed. Feeding took place in designated individual boxes in a quiet room separate from the housing room. Continuous remote monitoring via video camera during feeding was used to assess the BSS. Food consumption was measured by weighing the total available food before and after the 2 h feeding window, correcting for spillage. Lorcaserin (1 mg/kg) was included as a reference control (Higgins et al, 2011, Neuropsychopharmacology. 37(5): 1177-1191). Subjects were tested using a repeated-measures, Latin square design with 2-3 days wash-out between treatment cycles.
On scheduled test days, animals were monitored remotely via video camera during the feeding access period. The occurrence of four mutually exclusive behaviors (eating/drinking, grooming, active, rest) were individually scored. Over the 2 h feeding period, behaviors were assessed every 30 seconds. Scores were compiled into 23 5 min timebins (timebin 24 was removed due to early removal of animals) and the frequency of each behavior within each timebin was calculated to determine a temporal frequency of each measure (Rodgers et al, 2010, Pharmacology Biochemistry and Behaviour. 97: 3-14). Percentage time was plotted for each behavioral sequence in each timebin to compare between treatment groups (Higgins et al, 2011, Neuropsychopharmacology. 37(5): 1177-1191).

[1] = lorcaserin 1 mg/kg, AVG of animals LT-1 to LT-12
[2] = lorcaserin 1 mg/kg, raw score per animal (LT-1 to LT-12), hydrochloride

## C[C@H]1CNCCc2ccc(Cl)cc21 [lorcaserin, Lorcaserin hydrochloride, reference compound]
Lorcaserin 1 mg/kg, raw data per animal LT-1 to LT-12, 0-0.5 hours, hydrochloride
  BSS scoring R (resting), Time Bin 6 (25-30 TOTAL): 1 (3×) and 0 (8×) and 3
[1]
  BSS scoring A (active), Time Bin 19 (90-95 TOTAL), AVG: 0.10
  BSS scoring A (active), Time Bin 20 (95-100 TOTAL), AVG: 0.08
  BSS scoring A (active), Time Bin 21 (100-105 TOTAL), AVG: 0.06
  BSS scoring A (active), Time Bin 22 (105-110 TOTAL), AVG: 0.02
  BSS scoring A (active), Time Bin 23 (110-115 TOTAL), AVG: 0.06
  BSS scoring A (active), Time Bin 24 (115-120 TOTAL), AVG: 0.10
  BSS scoring E (eating/drinking), Time Bin 19 (90-95 TOTAL), AVG: 0.77
  BSS scoring E (eating/drinking), Time Bin 20 (95-100 TOTAL), AVG: 0.75
  BSS scoring E (eating/drinking), Time Bin 21 (100-105 TOTAL), AVG: 0.84
  BSS scoring E (eating/drinking), Time Bin 22 (105-110 TOTAL), AVG: 0.84
  BSS scoring E (eating/drinking), Time Bin 23 (110-115 TOTAL), AVG: 0.75
  BSS scoring E (eating/drinking), Time Bin 24 (115-120 TOTAL), AVG: 0.58
  BSS scoring G (grooming), Time Bin 19 (90-95 TOTAL), AVG: 0.04
  BSS scoring G (grooming), Time Bin 20 (95-100 TOTAL), AVG: 0.05
  BSS scoring G (grooming), Time Bin 21 (100-105 TOTAL), AVG: 0.05
  BSS scoring G (grooming), Time Bin 22 (105-110 TOTAL), AVG: 0.01
  BSS scoring G (grooming), Time Bin 23 (110-115 TOTAL), AVG: 0.08
  BSS scoring G (grooming), Time Bin 24 (115-120 TOTAL), AVG: 0.07
  BSS scoring R (resting), Time Bin 19 (90-95 TOTAL), AVG: 0.09
  BSS scoring R (resting), Time Bin 20 (95-100 TOTAL), AVG: 0.12
  BSS scoring R (resting), Time Bin 21 (100-105 TOTAL), AVG: 0.05
  BSS scoring R (resting), Time Bin 22 (105-110 TOTAL), AVG: 0.13
  BSS scoring R (resting), Time Bin 23 (110-115 TOTAL), AVG: 0.11
  BSS scoring R (resting), Time Bin 24 (115-120 TOTAL), AVG: 0.08
[2]
  BSS scoring A (active), Time Bin 19 (90-95 TOTAL): 2 (3×) and 0 (7×) and 3 (2×)
  BSS scoring A (active), Time Bin 20 (95-100 TOTAL): 0 (7×) and 1 (2×) and 4 and 2 (2×)
  BSS scoring A (active), Time Bin 21 (100-105 TOTAL): 0 (7×) and 1 (4×) and 3
  BSS scoring A (active), Time Bin 22 (105-110 TOTAL): 0 (11×) and 2
  BSS scoring A (active), Time Bin 23 (110-115 TOTAL): 0 (6×) and 1 (5×) and 2
  BSS scoring A (active), Time Bin 24 (115-120 TOTAL): 0 (8×) and 6 and 1 and 3 and 2
  BSS scoring E (eating/drinking), Time Bin 19 (90-95 TOTAL): 8 and 9 (3×) and 5 (2×) and 10 (2×) and 7 (3×) and 6
  BSS scoring E (eating/drinking), Time Bin 20 (95-100 TOTAL): 9 (5×) and 8 and 0 and 10 (2×) and 4 and 6 and 7
  BSS scoring E (eating/drinking), Time Bin 21 (100-105 TOTAL): 8 (4×) and 9 (2×) and 7 (3×) and 10 (3×)
  BSS scoring E (eating/drinking), Time Bin 22 (105-110 TOTAL): 7 and 8 (4×) and 9 (3×) and 10 (3×) and 5
  BSS scoring E (eating/drinking), Time Bin 23 (110-115 TOTAL): 6 (5×) and 8 (3×) and 9 (4×)
  BSS scoring E (eating/drinking), Time Bin 24 (115-120 TOTAL): 10 (2×) and 9 and 0 (2×) and 7 (2×) and 4 (2×) and 5 and 6 and 8
  BSS scoring G (grooming), Time Bin 19 (90-95 TOTAL): 0 (9×) and 3 and 1 (2×)
  BSS scoring G (grooming), Time Bin 20 (95-100 TOTAL): 0 (7×) and 1 (4×) and 2
  BSS scoring G (grooming), Time Bin 21 (100-105 TOTAL): 0 (7×) and 1 (4×) and 2
  BSS scoring G (grooming), Time Bin 22 (105-110 TOTAL): 0 (11×) and 1
  BSS scoring G (grooming), Time Bin 23 (110-115 TOTAL): 4 and 2 (2×) and 0 (7×) and 1 (2×)
  BSS scoring G (grooming), Time Bin 24 (115-120 TOTAL): 0 (7×) and 2 (3×) and 1 (2×)
  BSS scoring R (resting), Time Bin 19 (90-95 TOTAL): 0 (6×) and 1 (3×) and 3 (2×) and 2
  BSS scoring R (resting), Time Bin 20 (95-100 TOTAL): 1 (5×) and 0 (5×) and 7 and 2
  BSS scoring R (resting), Time Bin 21 (100-105 TOTAL): 2 and 0 (9×) and 3 and 1
  BSS scoring R (resting), Time Bin 22 (105-110 TOTAL): 3 (2×) and 2 (4×) and 0 (4×) and 1 (2×)
  BSS scoring R (resting), Time Bin 23 (110-115 TOTAL): 0 (3×) and 1 (6×) and 2 (2×) and 3
  BSS scoring R (resting), Time Bin 24 (115-120 TOTAL): 0 (7×) and 1 (2×) and 4 and 2 (2×)

From patent US20250108038A1 (priority 2023, published 2025)
